The test system of one assay is KURAMOCHI
Put plainly: drug sensitivity score (DSS2) on cancer cell count; higher = more sensitive; extreme values may be limits of the assay. To be noted: 72 h. The method in brief: (§1)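 Ovarian cancer cells were cultured either alone or directly mixed 1:1 with lung or skin fibroblasts and plated onto 384-well plates acoustically pre-spotted with 528 approved and investigational compounds at 5 concentrations for 72 h of treatment. After fixation, cells were immunostained for CK8/18 with Hoechst and imaged at 10× across 4 fields to count cancer cells. Responses were fitted with 4-parameter logistic curves, and from these fits a drug sensitivity score was derived in Breeze, with screen quality assessed by Z'.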

In a further assay the test system is OVCAR8. The assay is described as above. To be noted: 72 h. The method, boiled down:
as §1

The mark [1] stands for this setting: co-cultured fibroblast: BJHTERT.
The mark [2] stands for this setting: co-cultured fibroblast: none (monoculture).

With `CN(C)Cc1c(C(=O)NCCOc2ccc(C(=O)NO)cc2)oc2ccccc12` [Abexinostat], the drug sensitivity score with KURAMOCHI (setting [1]) is 17.2 DSS; with KURAMOCHI (co-cultured fibroblast: WI38), 20.6 DSS; with KURAMOCHI (setting [2]), 15.7 DSS; in the assay on OVCAR8 (setting [1]), 25.3 DSS; with OVCAR8 (co-cultured fibroblast: WI38) it was 18.5 DSS; with OVCAR8 (setting [2]) it was 27.9 DSS.

As for `CN(C)C(=N)NC(=N)N` [Metformin], the drug sensitivity score with KURAMOCHI (setting [1]), with KURAMOCHI (co-cultured fibroblast: WI38), with KURAMOCHI (setting [2]), in the assay with OVCAR8 (setting [1]), in the assay on OVCAR8 (co-cultured fibroblast: WI38) and in the assay with OVCAR8 (setting [2]) was 0 DSS throughout.

For `O=C(Nc1cnn2ccc(N3CCC[C@@H]3c3cc(F)ccc3F)nc12)N1CC[C@H](O)C1` [Larotrectinib], the drug sensitivity score in the assay on KURAMOCHI (setting [1]) was found to be 0 DSS; with KURAMOCHI (co-cultured fibroblast: WI38) it was 0 DSS; with KURAMOCHI (setting [2]) it was 0 DSS; with OVCAR8 (setting [1]) it was 0.2 DSS; in the assay on OVCAR8 (co-cultured fibroblast: WI38), 1.6 DSS; in the assay on OVCAR8 (setting [2]), 0 DSS.

As to `COc1ccc2[nH]cc(/C=C3\C(=O)Nc4ccc(NC(=O)CCN5CCCCC5)cc43)c2c1`, the drug sensitivity score in the assay on KURAMOCHI (setting [1]) was determined as 7.6 DSS; in the assay with KURAMOCHI (co-cultured fibroblast: WI38), 9.6 DSS; in the assay on KURAMOCHI (setting [2]), 9.2 DSS; with OVCAR8 (setting [1]) it was 4 DSS; with OVCAR8 (co-cultured fibroblast: WI38), 9.8 DSS; in the assay with OVCAR8 (setting [2]) it was 8.6 DSS.

With `O=C(Nc1nc2cccc(-c3ccc(CN4CCS(=O)(=O)CC4)cc3)n2n1)C1CC1` [Filgotinib], the drug sensitivity score in the assay on KURAMOCHI (setting [1]) amounted to 5.1 DSS; in the assay with KURAMOCHI (co-cultured fibroblast: WI38), 5.2 DSS; in the assay with KURAMOCHI (setting [2]), 2.4 DSS; in the assay with OVCAR8 (setting [1]), 2.9 DSS; with OVCAR8 (co-cultured fibroblast: WI38) it was 1.3 DSS; in the assay with OVCAR8 (setting [2]) it was 1.7 DSS.

With `Cc1ccc(NS(=O)(=O)c2cccc(C#N)c2)c2[nH]cc(C#N)c12` [E7820], the drug sensitivity score in the assay on KURAMOCHI (setting [1]) was 6.5 DSS; in the assay on KURAMOCHI (co-cultured fibroblast: WI38), 9.7 DSS; in the assay with KURAMOCHI (setting [2]), 15.8 DSS; with OVCAR8 (setting [1]), 5.4 DSS; with OVCAR8 (co-cultured fibroblast: WI38) it was 0 DSS; in the assay with OVCAR8 (setting [2]) it was 12.8 DSS.

Consider `CCOc1ccccc1-n1c(C(C)N2CCN(C(=O)COc3ccc(Cl)cc3)CC2)nc2ccccc2c1=O` (stereo not drawn) [Erastin], for which the drug sensitivity score in the assay on KURAMOCHI (setting [1]) was 3.6 DSS; with KURAMOCHI (co-cultured fibroblast: WI38), 3.9 DSS; in the assay with KURAMOCHI (setting [2]), 2.6 DSS; in the assay with OVCAR8 (setting [1]), 17.9 DSS; with OVCAR8 (co-cultured fibroblast: WI38), 18.6 DSS; in the assay on OVCAR8 (setting [2]), 7.4 DSS.

Take `O=C(O)c1ccc(CN2CCC(CN[C@@H]3C[C@H]3c3ccccc3)CC2)cc1`: the drug sensitivity score in the assay on KURAMOCHI (setting [1]) was determined as 0.9 DSS; with KURAMOCHI (co-cultured fibroblast: WI38), 0 DSS; in the assay on KURAMOCHI (setting [2]) it was 0 DSS; with OVCAR8 (setting [1]), 0 DSS; in the assay with OVCAR8 (co-cultured fibroblast: WI38), 0 DSS; in the assay with OVCAR8 (setting [2]) it was 2.2 DSS.

Turning to `Cc1c(-c2c(-c3ccc(F)o3)sc3ncnc(O[C@H](Cc4ccccc4OCc4ccnn4CC(F)(F)F)C(=O)O)c23)ccc(OCCN2CCN(C)CC2)c1Cl`, the drug sensitivity score in the assay with KURAMOCHI (setting [1]), in the assay on KURAMOCHI (co-cultured fibroblast: WI38), with KURAMOCHI (setting [2]), with OVCAR8 (setting [1]), in the assay with OVCAR8 (co-cultured fibroblast: WI38) and with OVCAR8 (setting [2]) was 0 DSS in each case.

Turning to `CCc1cncnc1N1CCN(Cc2nc3ccc(C(F)(F)F)cc3[nH]2)CC1`, the drug sensitivity score with KURAMOCHI (setting [1]) worked out at 1 DSS; in the assay with KURAMOCHI (co-cultured fibroblast: WI38) it was 0 DSS; in the assay with KURAMOCHI (setting [2]), 2.1 DSS; in the assay on OVCAR8 (setting [1]), 1.3 DSS; in the assay on OVCAR8 (co-cultured fibroblast: WI38), 0 DSS; with OVCAR8 (setting [2]) it was 2.4 DSS.

Regarding `COc1c(C)cnc(Cn2cnc3c(Cl)nc(N)nc32)c1C` [BIIB021], the drug sensitivity score was determined as 13.6 DSS in the assay on KURAMOCHI (setting [1]); 21.1 DSS with KURAMOCHI (co-cultured fibroblast: WI38); 15.6 DSS in the assay with KURAMOCHI (setting [2]); 21.5 DSS in the assay on OVCAR8 (setting [1]); 21.8 DSS in the assay with OVCAR8 (co-cultured fibroblast: WI38); 24 DSS with OVCAR8 (setting [2]).

Take `FC(F)c1nc2ccccc2n1-c1nc(N2CCOCC2)nc(N2CCOCC2)n1` [ZSTK474]: the drug sensitivity score in the assay on KURAMOCHI (setting [1]) is 15 DSS; with KURAMOCHI (co-cultured fibroblast: WI38) it was 12.7 DSS; in the assay with KURAMOCHI (setting [2]), 10.9 DSS; with OVCAR8 (setting [1]), 5.3 DSS; in the assay with OVCAR8 (co-cultured fibroblast: WI38) it was 0 DSS; with OVCAR8 (setting [2]), 9.8 DSS.

For the compound `CN1CCN(c2ccc3nc(-c4c(N)c5c(F)cccc5[nH]c4=O)[nH]c3c2)CC1` [Dovitinib], the drug sensitivity score came to 0 DSS with KURAMOCHI (setting [1]); 0 DSS in the assay on KURAMOCHI (co-cultured fibroblast: WI38); 0 DSS in the assay on KURAMOCHI (setting [2]); 0.5 DSS in the assay on OVCAR8 (setting [1]); 0 DSS in the assay with OVCAR8 (co-cultured fibroblast: WI38); 0.3 DSS in the assay on OVCAR8 (setting [2]).

On to `COc1cc(OC)c(/C=C/S(=O)(=O)Cc2ccc(OC)c(NCC(=O)O)c2)c(OC)c1` [Rigosertib], for which the drug sensitivity score turned out to be 24 DSS with KURAMOCHI (setting [1]); 24.1 DSS with KURAMOCHI (co-cultured fibroblast: WI38); 28.8 DSS with KURAMOCHI (setting [2]); 27.7 DSS with OVCAR8 (setting [1]); 28.9 DSS in the assay with OVCAR8 (co-cultured fibroblast: WI38); 30.4 DSS in the assay with OVCAR8 (setting [2]).

On to `CN(C(=O)c1ccc(F)cc1C(F)(F)F)C1CCN(c2nnc(-c3ccnn3C)c3ccccc23)CC1` [Taladegib], for which the drug sensitivity score in the assay on KURAMOCHI (setting [1]), in the assay with KURAMOCHI (co-cultured fibroblast: WI38), in the assay with KURAMOCHI (setting [2]), with OVCAR8 (setting [1]), in the assay with OVCAR8 (co-cultured fibroblast: WI38) and in the assay on OVCAR8 (setting [2]) was 0 DSS in each case.

With `Cc1cccc(-c2[nH]c(CNc3ccccc3F)nc2-c2ccc3ncnn3c2)n1` [TEW-7197], the drug sensitivity score came to 0 DSS in the assay on KURAMOCHI (setting [1]); 0 DSS with KURAMOCHI (co-cultured fibroblast: WI38); 0 DSS with KURAMOCHI (setting [2]); 11.2 DSS with OVCAR8 (setting [1]); 16.2 DSS in the assay on OVCAR8 (co-cultured fibroblast: WI38); 4.2 DSS in the assay on OVCAR8 (setting [2]).

With `Clc1ccc(Nc2nnc(Cc3ccncc3)c3ccccc23)cc1` [Vatalanib], the drug sensitivity score amounted to 0 DSS in the assay on KURAMOCHI (setting [1]); 0.7 DSS with KURAMOCHI (co-cultured fibroblast: WI38); 0 DSS in the assay on KURAMOCHI (setting [2]); 0.2 DSS with OVCAR8 (setting [1]); 0 DSS in the assay with OVCAR8 (co-cultured fibroblast: WI38); 0 DSS in the assay on OVCAR8 (setting [2]).

Turning to `CCS(=O)(=O)N1CC(CC#N)(n2cc(-c3ncnc4[nH]ccc34)cn2)C1` [Baricitinib], the drug sensitivity score in the assay on KURAMOCHI (setting [1]) came out at 0 DSS; with KURAMOCHI (co-cultured fibroblast: WI38), 0 DSS; with KURAMOCHI (setting [2]), 0 DSS; in the assay on OVCAR8 (setting [1]), 0 DSS; in the assay on OVCAR8 (co-cultured fibroblast: WI38) it was 1.1 DSS; with OVCAR8 (setting [2]) it was 0 DSS.

As to `O=C(Nc1ccncc1)C(=O)c1cn(Cc2ccc(Cl)cc2)c2ccccc12` [Indibulin], the drug sensitivity score in the assay on KURAMOCHI (setting [1]) was determined as 13.1 DSS; in the assay on KURAMOCHI (co-cultured fibroblast: WI38) it was 17.2 DSS; in the assay with KURAMOCHI (setting [2]) it was 19.5 DSS; with OVCAR8 (setting [1]), 11 DSS; in the assay on OVCAR8 (co-cultured fibroblast: WI38), 26.6 DSS; with OVCAR8 (setting [2]) it was 21.2 DSS.

`C[C@H]1CN(C2COC2)CCN1c1ccc(Nc2cc(-c3ccnc(N4CCn5c(cc6c5CC(C)(C)C6)C4=O)c3CO)cn(C)c2=O)nc1` [GDC-0853]: the drug sensitivity score in the assay on KURAMOCHI (setting [1]) stood at 0 DSS; in the assay on KURAMOCHI (co-cultured fibroblast: WI38), 0 DSS; in the assay on KURAMOCHI (setting [2]), 0 DSS; in the assay with OVCAR8 (setting [1]), 0 DSS; in the assay with OVCAR8 (co-cultured fibroblast: WI38) it was 2.3 DSS; in the assay on OVCAR8 (setting [2]), 0 DSS.

As to `CC(C)(C#N)c1cc(Cn2cncn2)cc(C(C)(C)C#N)c1` [Anastrozole], the drug sensitivity score in the assay with KURAMOCHI (setting [1]), with KURAMOCHI (co-cultured fibroblast: WI38), in the assay with KURAMOCHI (setting [2]), in the assay on OVCAR8 (setting [1]), in the assay with OVCAR8 (co-cultured fibroblast: WI38) and in the assay with OVCAR8 (setting [2]) was 0 DSS each time.

In the case of `Nc1cccc2c1CN(C1CCC(=O)NC1=O)C2=O` (stereo not drawn) [Lenalidomide], the drug sensitivity score worked out at 0.1 DSS with KURAMOCHI (setting [1]); 2.6 DSS in the assay on KURAMOCHI (co-cultured fibroblast: WI38); 10.7 DSS with KURAMOCHI (setting [2]); 0 DSS in the assay with OVCAR8 (setting [1]); 0 DSS in the assay on OVCAR8 (co-cultured fibroblast: WI38); 1.8 DSS in the assay with OVCAR8 (setting [2]).

For the compound `COc1cc(CCc2cc(NC(=O)c3ccc(N4CC(C)NC(C)C4)cc3)n[nH]2)cc(OC)c1` (stereo not drawn) [AZD4547], the drug sensitivity score with KURAMOCHI (setting [1]), in the assay on KURAMOCHI (co-cultured fibroblast: WI38), in the assay with KURAMOCHI (setting [2]), with OVCAR8 (setting [1]), in the assay with OVCAR8 (co-cultured fibroblast: WI38) and in the assay on OVCAR8 (setting [2]) was 0 DSS each time.

For the origin of these results see the supplement of paper PMC12420376.
